Data on 28 molecules can be found in US20050197336A1 (Miikana Therapeutics Corporation, priority 2004, published 2005).

One experiment concerns MCF7 cells. Put plainly: Whole cell cytotoxicity assay: Sulforhodamine B. The settings on record: Homo sapiens; compound at 100 μM; MCF7 cell growth; 48 hours with drug; SRB staining. The experiment is classed as cell-based, human. On the procedure:
The following procedure can be found on the Developmental Therapeutics Program NCI/NIH web site at http://dtp.nci.nih.gov/brancehes/btb/ivclsp.html.
1. Human tumor cell lines of HT29, A549 and MCF7 are grown in DMEM containing 10% fetal bovine serum and 2 mM L-glutamine. Cells are plated in a 96 well plate at a density of 5000 cells per well in 100 μL of growth medium and incubated at 37° C., 5% CO2, for 24 hours prior to the addition of experimental compounds.
2. Experimental drugs are solubilized in DMSO for a final concentration of 20 mM immediately prior to use. Drugs are further diluted in growth media for a total of nine drug concentrations and a growth control. At the 24 hour time point, one plate of cells is fixed in situ with TCA as a measurement of the cell population at time zero, or the time of drug addition.
3. The plates are further incubated with drug for an additional 48 hours.
4. The cells are fixed in situ by gently aspirating off the culture media and then adding 50 μL of ice cold 10% TCA per well and incubated at 4° C. for 60 minutes. The plates are washed with tap water five times and allowed to air dry for 5 minute.
5. 50 μL of a 0.4% (w/v) Sulforhodamine B solution in 1% (v/v) acetic acid is added per well and incubated for 30 minutes at room temperature.
6. Following staining, plates are washed five times with 1% acetic acid to remove any unbound dye and then allowed to air dry for 5 minutes.
7. Stain is solubilized with 100 μL of 10 mM Tris pH 10.5 per well and placed on an orbital rotator for 5 minutes.
8. Absorbance is read at 570 nm.

For experiment [1], the system named is Histone deacetylase (HDAC), HeLa cell nuclear extract. Briefly: In vitro fluorescent histone deacetylase assay (Biomol kit, HeLa cell nuclear extract). The experiment is classed as biochemical. The settings on record: compound at 100 μM; HeLa cell nuclear extract as HDAC source; substrate 50 μM; 10 min at room temperature. On the procedure: Histone deacetylase (HDAC) activity assays were performed using the HDAC fluorescent activity assay/drug discovery kit (Biomol Research Laboratories, Plymouth Meeting, Pa.) essentially according to the manufacturer's instructions. The included HeLa cell nuclear extract, which contains a mosaic of HDAC enzymes and other nuclear factors, was used as the source of HDAC activity. The final substrate concentration in the assay mixture was 50 μM. The reaction was allowed to proceed for 10 min at room temperature before stopping the reaction. Test compounds were prepared as 20 mM stock solutions in DMSO (Molecular Biology grade, Sigma-Aldrich Co. St. Louis, Mo.) and stored at −70° C. Serial dilutions of test compounds were prepared in assay buffer immediately prior to testing. DMSO was determined in a separate trial to have no significant effect on the activity of this assay at concentrations up to 5%; the final DMSO concentration in the wells was no more than 2% and therefore DMSO effects were safely neglected. Assays were performed in white polystyrene 96-well half-area assay plates (Corning, Corning, N.Y.) and measured on a Wallace 1420 fluorescent plate reader (Wallac Oy, Turku, Finland) with an excitation wavelength of 355 nm, an emission wavelength of 460 nm, and a 1 sec signal averaging time.

Turning to `O=C(NO)c1cnc(N2CCN(S(=O)(=O)c3ccc(-c4ccc(Cl)cc4)cc3)CC2)s1` [Example 62], the inhibition (as a rule, the relative decrease from the control value, in per cent) at 100 µM in the experiment on MCF7 cells was 75%. Further, in experiment [1], the “% inhibition HDAC @ 100 μM” value was found to be 98%.
The corresponding values for `CC(C)(C)OC(=O)n1cccc1-c1ccc(S(=O)(=O)N2CCN(c3ncc(C(=O)NO)s3)CC2)cc1` [Example 66] are 97% and 99%.
The molecule `CN1CCN(Cc2cccc(-c3ccc(S(=O)(=O)N4CCN(c5ncc(C(=O)NO)s5)CC4)cc3)c2)CC1` [Example 84] displayed an inhibition at 100 µM in the experiment with MCF7 cells of 96.7%. Further, the “% inhibition HDAC @ 100 μM” value in experiment [1] is listed as 100%.
In turn, `Cc1ccccc1S(=O)(=O)N1CCN(c2ncc(C(=O)NO)s2)CC1` [Example 21, 2-[4-(2-methylphenylsulfonyl)piperazin-1-yl]-thiazole-5-carboxylic acid hydroxyamide] had an inhibition at 100 µM with MCF7 cells of 97.1%. In experiment [1], the “% inhibition HDAC @ 100 μM” value came out at 100%.
Turning to `COc1ccc(S(=O)(=O)N2CCN(c3ncc(C(=O)NO)s3)CC2)cc1` [Example 103, 2-[4-(4-Methoxybenzenesulfonyl)piperazin-1-yl]-thiazole-5-carboxylic acid hydroxyamide], the inhibition at 100 µM in the experiment on MCF7 cells was determined as 97.5%. The “% inhibition HDAC @ 100 μM” value in experiment [1] is reported as 100%.
For `O=C(NO)c1cnc(N2CCN(S(=O)(=O)c3ccc(-c4ccc5c(c4)OCO5)cc3)CC2)s1` [Example 60, 2-(4-{[4-(1,3-benzodioxol-5-yl)phenyl]sulfonyl}piperazin-1-yl)-1,3-thiazole-5-carboxylic acid hydroxyamide], in that order: 92.1% and 99%.
For `CC(=O)Nc1ccc(-c2ccc(S(=O)(=O)N3CCN(c4ncc(C(=O)NO)s4)CC3)cc2)cc1` [Example 92], in that order: 88.8% and 100%.
The corresponding values for `CCN(C)Cc1cccc(-c2ccc(S(=O)(=O)N3CCN(c4ncc(C(=O)NO)s4)CC3)cc2)c1` [Example 86] are 97.8% and 99%.
`O=C(NO)c1cnc(N2CCN(S(=O)(=O)c3cccc(F)c3)CC2)s1` [Example 35, 2-[4-(3-fluorophenylsulfonyl)-piperazin-1-yl]-thiazole-5-carboxylic acid hydroxyamide]: in the experiment on MCF7 cells, the inhibition at 100 µM amounted to 97.9%. For the same molecule, the “% inhibition HDAC @ 100 μM” value in experiment [1] stood at 97%.
For `Cc1ccc(S(=O)(=O)N2CCN(c3ncc(C(=O)NO)s3)CC2)cc1Cl` [Example 30, 2-[4-(3-chloro-4-methylphenylsulfonyl)-piperazin-1-yl]-thiazole-5-carboxylic acid hydroxyamide], in that order: 97.9% and 99%.
The corresponding values for `O=C(NO)c1cnc(N2CCN(S(=O)(=O)c3cccs3)CC2)s1` [Example 8, 2-[4-(thiophene-2-benzenesulfonyl)-piperazin-1-Yl]-thiazole-5-carboxylic acid hydroxyamide] are 90.1% and 98%.
As to `O=C(NO)c1cnc(N2CCN(S(=O)(=O)c3ccc(-c4ccncc4)cc3)CC2)s1` [Example 72, 2-{4-[4-(pyridin-4-yl)phenylsulfonyl]piperazin-1-yl}-1,3-thiazole-5-carboxylic acid hydroxyamide], in the experiment with MCF7 cells, the inhibition at 100 µM came out at 84.5%. The “% inhibition HDAC @ 100 μM” value in experiment [1] stood at 98%.
The corresponding values for `O=C(NO)c1cnc(N2CCN(S(=O)(=O)c3ccc(Oc4ccccc4)nc3)CC2)s1` [Example 47, 2-[4-(2-phenoxypyridine-5-sulfonyl)-piperazin-1-yl]-thiazole-5-carboxylic acid hydroxyamide] are 90.2% and 96%.
For `Cc1ccc(S(=O)(=O)N2CCN(c3ncc(C(=O)NO)s3)CC2)cc1` [Example 4, 2-[4-(4-toluene-4-sulfonyl)-piperazin-1-yl]-thiazole-5-carboxylic acid hydroxyamide], in that order: 95.4% and 100%.
The corresponding values for `O=C(NO)c1cnc(N2CCN(S(=O)(=O)c3ccc(-c4cccc(Cl)c4)cc3)CC2)s1` [Example 57, 2-{4-[(3′-chloro-1,1′-biphenyl-4-yl)sulfonyl]piperazin-1-yl}-1,3-thiazole-5-carboxylic acid hydroxyamide] are 68.6% and 93%.
In turn, `O=C(NO)c1cnc(N2CCN(S(=O)(=O)c3ccc(Br)s3)CC2)s1` [Example 55, 2-{4-[(5-bromothien-2-yl)sulfonyl]piperazin-1-yl}-N-hydroxy-1,3-thiazole-5-carboxamide] returned an inhibition at 100 µM with MCF7 cells of 0%. Besides, the “% inhibition HDAC @ 100 μM” value in experiment [1] is listed as 9%.
For `COc1ccc(S(=O)(=O)N2CCN(c3ncc(C(=O)NO)s3)CC2)cc1OC` [Example 2, 2-[4-(3,4-dimethoxy-benzenesulfonyl)-piperazin-1-yl]-thiazole-5-carboxylic acid hydroxyamide], in that order: 98.3% and 99%.
For `Cc1ccc(S(=O)(=O)N2CCN(c3ncc(C(=O)NO)s3)CC2)cc1F` [Example 40, 2-[4-(3-fluoro-4-methylphenylsulfonyl)-piperazin-1-yl]-thiazole-5-carboxylic acid hydroxyamide], in that order: 99.1% and 100%.
Take `CN(C)Cc1sccc1-c1ccc(S(=O)(=O)N2CCN(c3ncc(C(=O)NO)s3)CC2)cc1` [Example 81]: the inhibition at 100 µM with MCF7 cells was 97.1%. In addition, the “% inhibition HDAC @ 100 μM” value in experiment [1] was found to be 100%.
In turn, `O=C(NO)c1cnc(N2CCN(S(=O)(=O)/C=C/c3ccccc3)CC2)s1` [Example 20, 2-[4-(trans-2-phenylethanelsulfonyl)piperazin-1-yl]-thiazole-5-carboxylic acid hydroxyamide] gave an inhibition at 100 µM in the experiment with MCF7 cells of 97.9%. In addition, the “% inhibition HDAC @ 100 μM” value in experiment [1] turned out to be 97%.
For `O=C(NO)c1cnc(N2CCN(S(=O)(=O)c3cccc(-c4ccccc4)c3)CC2)s1` [Example 51, 2-[4-(3-biphenylsulfonyl)-piperazin-1-yl]-thiazole-5-carboxylic acid hydroxyamide], in that order: 97% and 100%.
For `O=C(NO)c1cnc(N2CCN(S(=O)(=O)c3ccc(-c4cncnc4)cc3)CC2)s1` [Example 91, 2-[4-{(4-pyrimidine)benzenesulfonyl}-piperazin-1-yl]-thiazole-5-carboxylic acid hydroxyamide], in that order: 94.6% and 99%.
The corresponding values for `C=CCN(C)Cc1cccc(-c2ccc(S(=O)(=O)N3CCN(c4ncc(C(=O)NO)s4)CC3)cc2)c1.Cl` [Example 79] are 98% and 99%.
In the experiment on MCF7 cells, `Cc1ccc(F)cc1S(=O)(=O)N1CCN(c2ncc(C(=O)NO)s2)CC1` [Example 33, 2-[4-(2-methyl-5-fluorophenylsulfonyl)-piperazin-1-yl]-thiazole-5-carboxylic acid hydroxyamide] registered an inhibition at 100 µM of 98.4%. Further, in experiment [1], the “% inhibition HDAC @ 100 μM” value was determined as 96%.
`CC(C)(C)c1ccc(-c2ccc(S(=O)(=O)N3CCN(c4ncc(C(=O)NO)s4)CC3)cc2)cc1` [Example 64] registered an inhibition at 100 µM in the experiment with MCF7 cells of 87%. In addition, in experiment [1], the “% inhibition HDAC @ 100 μM” value was determined as 48%.
For `Cc1c(Cl)cccc1S(=O)(=O)N1CCN(c2ncc(C(=O)NO)s2)CC1` [Example 32, 2-[4-(3-chloro-2-methylphenylsulfonyl)-piperazin-1-yl]-thiazole-5-carboxylic acid hydroxyamide], in that order: 98.1% and 99%.
The corresponding values for `Cl.O=C(NO)c1cnc(N2CCN(S(=O)(=O)c3ccc(-c4cccc(CN5CCCCCC5)c4)cc3)CC2)s1` [Example 77] are 98% and 100%.
The corresponding values for `O=C(NO)c1cnc(N2CCN(S(=O)(=O)Cc3ccccc3)CC2)s1` [Example 26, 2-[4-(benzylsulfonyl)piperazin-1-yl]-thiazole-5-carboxylic acid hydroxyamide] are 90% and 98%.
